{
  "source": "patent US12594276B2",
  "about": "“Inhibitors of human immunodeficiency virus replication” (ViiV Healthcare UK (No.5) Limited, priority 2024, dated 2026)",
  "key": {"[1]": {"tested_on": "recombinant NL4-3 virus (nef section replaced with Renilla luciferase gene) in MT-2 cells", "experiment": "HIV cell culture assay (antiviral activity, luciferase readout)", "format": "cell-based", "conditions": "Renilla, NL43, MT-2 cells infected for 4-5 days with recombinant NL4-3 Renilla luciferase virus", "summary_of_the_method": "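Compound activity was measured as reduction of luciferase in MT-2 cells infected for 4-5 days with serially diluted compound present. EC50 values were calculated with the median effect equation.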"}, "[2]": {"experiment": "Compound cytotoxicity, XTT-based colorimetric assay", "format": "cell-based", "conditions": "human; uninfected MT2 cells, day 4, XTT; read-out: CC50", "summary_of_the_method": "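Uninfected MT2 cells, antiviral-assay protocol without virus; XTT colorimetric readout day 4; CC50 reported.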"}},
  "data": [
    {"molecule": "COCCCn1nc(NS(C)(=O)=O)c2c(Cl)ccc(-n3c([C@H](Cc4cc(F)cc(F)c4)NC(=O)Cn4nc(C(F)F)c5c4C(F)(F)[C@@H]4C[C@H]54)nc4nc(C5CCC(F)(F)CC5)cc(NCC(=O)N5CCCCC5)c4c3=O)c21", "note": "(atropisomer, axis not shown; (P)) [Example 566, N-[(1S)-1-[(3P)-3-[4-chloro-3-methanesulfonamido-1-(3-methoxypropyl)-1H-indazol-7-yl]-7-(4,4-difluorocyclohexyl)-4-oxo-5-{[2-oxo-2-(piperidin-1-yl)ethyl]amino}-3H,4H-pyrido[2,3-d]pyrimidin-2-yl]-2-(3,5-difluorophenyl)ethyl]-2-[(2S,4R)-9-(difluoromethyl)-5,5-difluoro-7,8-diazatricyclo[4.3.0.0^2,^4]nona-1(6),8-dien-7-yl]acetamide]", "values": [
      {"measurement": "EC50", "setting": "[1]", "value": 0.079, "unit": "nM"},
      {"measurement": "CC50 at 4 days", "setting": "[2]", "value": "> 20", "unit": "nM"}
    ]},
    {"molecule": "COCCCn1nc(NS(C)(=O)=O)c2c(Cl)ccc(-n3c([C@H](Cc4cc(F)cc(F)c4)NC(=O)Cn4nc(C(F)F)c5c4C(F)(F)[C@@H]4C[C@H]54)nc4nc(C5CCC(F)(F)CC5)cc(NC[C@H]5CCOC5)c4c3=O)c21", "note": "(atropisomer, axis not shown; (P)) [Example 567, N-[(1S)-1-[(3P)-3-[4-chloro-3-methanesulfonamido-1-(3-methoxypropyl)-1H-indazol-7-yl]-7-(4,4-difluorocyclohexyl)-4-oxo-5-({[(3R)-oxolan-3-yl]methyl}amino)-3H,4H-pyrido[2,3-d]pyrimidin-2-yl]-2-(3,5-difluorophenyl)ethyl]-2-[(2S,4R)-9-(difluoromethyl)-5,5-difluoro-7,8-diazatricyclo[4.3.0.0^2,^4]nona-1(6),8-dien-7-yl]acetamide]", "values": [
      {"measurement": "EC50", "setting": "[1]", "value": 0.009, "unit": "nM"},
      {"measurement": "CC50 at 4 days", "setting": "[2]", "value": "> 20", "unit": "nM"}
    ]},
    {"molecule": "COCCCn1nc(NS(C)(=O)=O)c2c(Cl)ccc(-n3c([C@H](Cc4cc(F)cc(F)c4)NC(=O)Cn4nc(C(F)F)c5c4C(F)(F)[C@@H]4C[C@H]54)nc4nc(C5CCC(F)(F)CC5)cc(NC[C@@H]5CCOC5)c4c3=O)c21", "note": "(atropisomer, axis not shown; (P)) [Example 568, N-[(1S)-1-[(3P)-3-[4-chloro-3-methanesulfonamido-1-(3-methoxypropyl)-1H-indazol-7-yl]-7-(4,4-difluorocyclohexyl)-4-oxo-5-({[(3S)-oxolan-3-yl]methyl}amino)-3H,4H-pyrido[2,3-d]pyrimidin-2-yl]-2-(3,5-difluorophenyl)ethyl]-2-[(2S,4R)-9-(difluoromethyl)-5,5-difluoro-7,8-diazatricyclo[4.3.0.0^2,^4]nona-1(6),8-dien-7-yl]acetamide]", "values": [
      {"measurement": "EC50", "setting": "[1]", "value": 0.01, "unit": "nM"},
      {"measurement": "CC50 at 4 days", "setting": "[2]", "value": "> 20", "unit": "nM"}
    ]},
    {"molecule": "Cc1cc(C2(F)CCC(F)(F)CC2)nc2nc([C@H](Cc3cc(F)cc(F)c3)NC(=O)Cn3nc(C(F)(F)F)c4c3C(F)(F)[C@@H]3C[C@H]43)n(-c3ccc(Cl)c4c(NS(C)(=O)=O)nn(CCN5C[C@H](F)C[C@H](F)C5)c34)c(=O)c12", "note": "(atropisomer, axis not shown; (P)) [Example 569, N-[(1S)-1-[(3P)-3-(4-chloro-1-{2-[(3R,5S)-3,5-difluoropiperidin-1-yl]ethyl}-3-methanesulfonamido-1H-indazol-7-yl)-5-methyl-4-oxo-7-(1,4,4-trifluorocyclohexyl)-3H,4H-pyrido[2,3-d]pyrimidin-2-yl]-2-(3,5-difluorophenyl)ethyl]-2-[(2S,4R)-5,5-difluoro-9-(trifluoromethyl)-7,8-diazatricyclo[4.3.0.0^2,^4]nona-1(6),8-dien-7-yl]acetamide]", "values": [
      {"measurement": "EC50", "setting": "[1]", "value": 0.012, "unit": "nM"},
      {"measurement": "CC50 at 4 days", "setting": "[2]", "value": "> 20", "unit": "nM"}
    ]},
    {"molecule": "Cc1cc(C2(F)CCC(F)(F)CC2)nc2nc([C@H](Cc3cc(F)cc(F)c3)NC(=O)Cn3nc(C4CC4)c4c3C(F)(F)[C@@H]3C[C@H]43)n(-c3ccc(Cl)c4c(NS(C)(=O)=O)nn(CCN5C[C@H](F)C[C@H](F)C5)c34)c(=O)c12", "note": "(atropisomer, axis not shown; (P)) [Example 570, N-[(1S)-1-[(3P)-3-(4-chloro-1-{2-[(3R,5S)-3,5-difluoropiperidin-1-yl]ethyl}-3-methanesulfonamido-1H-indazol-7-yl)-5-methyl-4-oxo-7-(1,4,4-trifluorocyclohexyl)-3H,4H-pyrido[2,3-d]pyrimidin-2-yl]-2-(3,5-difluorophenyl)ethyl]-2-[(2S,4R)-9-cyclopropyl-5,5-difluoro-7,8-diazatricyclo[4.3.0.0^2,^4]nona-1(6),8-dien-7-yl]acetamide]", "values": [
      {"measurement": "EC50", "setting": "[1]", "value": 0.029, "unit": "nM"},
      {"measurement": "CC50 at 4 days", "setting": "[2]", "value": "> 20", "unit": "nM"}
    ]},
    {"molecule": "Cc1cc(C2(F)CCC(F)(F)CC2)nc2nc([C@H](Cc3cc(F)cc(F)c3)NC(=O)Cn3nc(C(F)F)c4c3C[C@@H]3C[C@H]43)n(-c3ccc(Cl)c4c(NS(C)(=O)=O)nn(CCN5C[C@H](F)C[C@H](F)C5)c34)c(=O)c12", "note": "(atropisomer, axis not shown; (P)) [Example 571, N-[(1S)-1-[(3P)-3-(4-chloro-1-{2-[(3R,5S)-3,5-difluoropiperidin-1-yl]ethyl}-3-methanesulfonamido-1H-indazol-7-yl)-5-methyl-4-oxo-7-(1,4,4-trifluorocyclohexyl)-3H,4H-pyrido[2,3-d]pyrimidin-2-yl]-2-(3,5-difluorophenyl)ethyl]-2-[(2S,4S)-9-(difluoromethyl)-7,8-diazatricyclo[4.3.0.0^2,^4]nona-1(6),8-dien-7-yl]acetamide]", "values": [
      {"measurement": "EC50", "setting": "[1]", "value": 0.014, "unit": "nM"},
      {"measurement": "CC50 at 4 days", "setting": "[2]", "value": "> 20", "unit": "nM"}
    ]},
    {"molecule": "Cc1cc(C2(F)CCC(F)(F)CC2)nc2nc([C@H](Cc3cc(F)cc(F)c3)NC(=O)Cn3nc(C(F)(F)F)c4c3C[C@@H]3C[C@H]43)n(-c3ccc(Cl)c4c(NS(C)(=O)=O)nn(CCN5C[C@H](F)C[C@H](F)C5)c34)c(=O)c12", "note": "(atropisomer, axis not shown; (P)) [Example 572, N-[(1S)-1-[(3P)-3-(4-chloro-1-{2-[(3R,5S)-3,5-difluoropiperidin-1-yl]ethyl}-3-methanesulfonamido-1H-indazol-7-yl)-5-methyl-4-oxo-7-(1,4,4-trifluorocyclohexyl)-3H,4H-pyrido[2,3-d]pyrimidin-2-yl]-2-(3,5-difluorophenyl)ethyl]-2-[(2S,4S)-9-(trifluoromethyl)-7,8-diazatricyclo[4.3.0.0^2,^4]nona-1(6),8-dien-7-yl]acetamide]", "values": [
      {"measurement": "EC50", "setting": "[1]", "value": 0.015, "unit": "nM"},
      {"measurement": "CC50 at 4 days", "setting": "[2]", "value": "> 20", "unit": "nM"}
    ]},
    {"molecule": "Cc1cc(C2(F)CCC(F)(F)CC2)nc2nc([C@H](Cc3cc(F)cc(F)c3)NC(=O)Cn3nc([C@H]4CC4(F)F)c4c3C[C@H]3C[C@@H]43)n(-c3ccc(Cl)c4c(NS(C)(=O)=O)nn(CCN5C[C@H](F)C[C@H](F)C5)c34)c(=O)c12", "note": "(atropisomer, axis not shown; (P)) [Example 573, N-[(1S)-1-[(3P)-3-(4-chloro-1-{2-[(3R,5S)-3,5-difluoropiperidin-1-yl]ethyl}-3-methanesulfonamido-1H-indazol-7-yl)-5-methyl-4-oxo-7-(1,4,4-trifluorocyclohexyl)-3H,4H-pyrido[2,3-d]pyrimidin-2-yl]-2-(3,5-difluorophenyl)ethyl]-2-[(2R,4R)-9-[(1R)-2,2-difluorocyclopropyl]-7,8-diazatricyclo[4.3.0.0^2,^4]nona-1(6),8-dien-7-yl]acetamide]", "values": [
      {"measurement": "EC50", "setting": "[1]", "value": 0.012, "unit": "nM"},
      {"measurement": "CC50 at 4 days", "setting": "[2]", "value": "> 20", "unit": "nM"}
    ]},
    {"molecule": "Cc1cc(C2(F)CCC(F)(F)CC2)nc2nc([C@H](Cc3cc(F)cc(F)c3)NC(=O)Cn3nc(C(F)F)c4c3C(F)(F)[C@@H]3C[C@H]43)n(-c3ccc(Cl)c4c(NS(C)(=O)=O)nn(CCN5CCO[C@@H](C(C)C)C5)c34)c(=O)c12", "note": "(atropisomer, axis not shown; (P)) [Example 574, N-[(1S)-1-[(3P)-3-(4-chloro-3-methanesulfonamido-1-{2-[(2S)-2-(propan-2-yl)morpholin-4-yl]ethyl}-1H-indazol-7-yl)-5-methyl-4-oxo-7-(1,4,4-trifluorocyclohexyl)-3H,4H-pyrido[2,3-d]pyrimidin-2-yl]-2-(3,5-difluorophenyl)ethyl]-2-[(2S,4R)-9-(difluoromethyl)-5,5-difluoro-7,8-diazatricyclo[4.3.0.0^2,^4]nona-1(6),8-dien-7-yl]acetamide]", "values": [
      {"measurement": "EC50", "setting": "[1]", "value": 0.019, "unit": "nM"},
      {"measurement": "CC50 at 4 days", "setting": "[2]", "value": "> 20", "unit": "nM"}
    ]},
    {"molecule": "Cc1cc(C2(F)CCC(F)(F)CC2)nc2nc([C@H](Cc3cc(F)cc(F)c3)NC(=O)Cn3nc(C(F)F)c4c3C(F)(F)[C@@H]3C[C@H]43)n(-c3ccc(Cl)c4c(NS(C)(=O)=O)nn(CCN5CCO[C@H](C(C)C)C5)c34)c(=O)c12", "note": "(atropisomer, axis not shown; (P)) [Example 575, N-[(1S)-1-[(3P)-3-(4-chloro-3-methanesulfonamido-1-{2-[(2R)-2-(propan-2-yl)morpholin-4-yl]ethyl}-1H-indazol-7-yl)-5-methyl-4-oxo-7-(1,4,4-trifluorocyclohexyl)-3H,4H-pyrido[2,3-d]pyrimidin-2-yl]-2-(3,5-difluorophenyl)ethyl]-2-[(2S,4R)-9-(difluoromethyl)-5,5-difluoro-7,8-diazatricyclo[4.3.0.0^2,^4]nona-1(6),8-dien-7-yl]acetamide]", "values": [
      {"measurement": "EC50", "setting": "[1]", "value": 0.012, "unit": "nM"},
      {"measurement": "CC50 at 4 days", "setting": "[2]", "value": "> 20", "unit": "nM"}
    ]},
    {"molecule": "Cc1cc(C2(F)CCC(F)(F)CC2)nc2nc([C@H](Cc3cc(F)cc(F)c3)NC(=O)Cn3nc(C(F)F)c4c3C(F)(F)[C@@H]3C[C@H]43)n(-c3ccc(Cl)c4c(NS(C)(=O)=O)nn(CCN5C[C@H](C)OC(C)(C)C5)c34)c(=O)c12", "note": "(atropisomer, axis not shown; (P)) [Example 576]", "values": [
      {"measurement": "EC50", "setting": "[1]", "value": 0.01, "unit": "nM"},
      {"measurement": "CC50 at 4 days", "setting": "[2]", "value": "> 20", "unit": "nM"}
    ]}
  ]
}
